This note sets out measurements from PubChem BioAssay AID743403 (Broad Institute, 2014).

Several values for one entry are separate records, joined by “and”; a condition that tells them apart may be missing. Equal values may be shown once. Activity calls are given as the source filed them. No rule for the calls is given here. Some results are limits rather than exact numbers.

Tested on in one experiment: not listed separately
The experiment can be described thus: fungal cell lysis by compounds – dry powder, set 2, dose response (AID 743403). Particulars: Cryptococcus neoformans cell lysis, plate reader; at 35 µM (top of the series).
With `OCc1nc2ccccc2n1CCOc1ccccc1`, the activity change, negative = active was -9.32% (inactive).

`Fc1ccc(OCCn2c(=S)[nH]c3ccccc32)cc1`: the activity change, negative = active is -33.3% (inactive).

Take `CCCCc1nc2ccccc2n1CCOc1ccccc1`: the activity change, negative = active was 0.005% (inactive).

As to `CSc1nc2ccccc2n1CCOc1cc(C)ccc1C(C)C`, the activity change, negative = active was -4.35% (inactive).

As to `Cc1ccc(C(C)C)c(OCCn2c(N)nc3ccccc32)c1`, the activity change, negative = active is 69.2% (inactive).

Regarding `Cc1ccc(C(C)C)c(OCCn2c(CO)nc3ccccc32)c1`, the activity change, negative = active was -20.4% (inactive).

Consider `CC(C)c1ccccc1NCCn1c(=S)[nH]c2ccccc21`, for which the activity change, negative = active was 0.673% (inactive).

Turning to `O=S(=O)(c1ccc(OCCn2cnc3ccccc32)cc1)N1CCOCC1`, the activity change, negative = active was -21.8% (inactive).

Consider `CS(=O)(=O)c1ccc(OCCn2cnc3ccccc32)cc1`, for which the activity change, negative = active was -15.6% (inactive).

Regarding `COc1ccccc1OCCn1c(=S)[nH]c2ccccc21`, the activity change, negative = active is 3.55% (inactive).

For the compound `Cc1ccc(C(C)C)c(OCCn2c(NC#N)nc3ccccc32)c1`, the activity change, negative = active is -9.31% (inactive).

With `CCSc1nc2ccccc2n1CCOc1ccccc1`, the activity change, negative = active is -22.6% (inactive).

For the compound `Cc1ccc(C(C)C)c(OCCn2c(=O)[nH]c3ccccc32)c1`, the activity change, negative = active was -16.7% (inactive).

For `COc1ccc(OCCn2cnc3ccccc32)cc1`, the activity change, negative = active was -22.1% (inactive).

Consider `S=c1[nH]c2cc(Cl)ccc2n1CCOc1ccccc1`, for which the activity change, negative = active was 27% (inactive).

With `COCc1nc2ccccc2n1CCOc1ccc(C(C)(C)C)cc1`, the activity change, negative = active is 5.6% (inactive).

Take `Cc1cccc(OCCn2c(=S)[nH]c3c(F)cccc32)c1`: the activity change, negative = active is 1.05% (inactive).

With `CCCc1nc2ccccc2n1CCOc1ccccc1`, the activity change, negative = active is 0.352% (inactive).

Take `CCc1nc2ccccc2n1CCOc1ccccc1`: the activity change, negative = active is 5.25% (inactive).

`c1ccc(-c2ccc(OCCn3cnc4ccccc43)cc2)cc1`: the activity change, negative = active was -12.5% (inactive).

On to `Cc1cccc(OCCn2c(=S)[nH]c3ccc(C(F)(F)F)cc32)c1`, for which the activity change, negative = active is 4.5% (inactive).

The test system of the next experiment is Cryptococcus neoformans cell lysis, plate reader. Described as above.
Conditions: not given
In general, AC50 refers to the concentration giving half of the maximal activity seen. As to `Cc1ccc(OCCn2cnc3ccccc32)c(C)c1`, the concentration at half-maximal activity (AC50) is 7.4 µM.

As to `Clc1ccccc1OCCn1cnc2ccccc21`, the AC50 is 36.3 µM.

For `CC(C)Oc1ccc(OCCn2c(=S)[nH]c3ccccc32)cc1`, the AC50 was 29.7 µM.

Consider `CC(C)c1ccccc1OCCn1c(=S)[nH]c2ccccc21`, for which the AC50 was 11.9 µM.

For the compound `Cc1cccc(OCCn2c(=S)[nH]c3ccccc32)c1`, the AC50 is 19.5 µM.

With `Fc1cccc2c1[nH]c(=S)n2CCOc1ccccc1`, the AC50 was 26.2 µM.

As to `Clc1ccc(OCCn2cnc3ccccc32)c(Cl)c1`, the AC50 is 7.76 µM.

As to `CC(C)Oc1cccc(OCCn2cnc3ccccc32)c1`, the AC50 is 29 µM.

In the case of `Fc1ccc2c(c1)[nH]c(=S)n2CCOc1ccccc1`, the half-maximal activity concentration (AC50) was 23.2 µM and 28.7 µM.

Turning to `Cc1ccc2c(c1)[nH]c(=S)n2CCOc1ccccc1`, the half-maximal activity concentration (AC50) was 17.4 µM.

In the case of `CC(C)(C)c1ccc(OCCn2cnc3ccccc32)c(Cl)c1`, the concentration at half-maximal activity (AC50) is 20.8 µM.

For the compound `FC(F)(F)c1cccc(OCCn2cnc3ccccc32)c1`, the AC50 is > 70 µM (inactive).

With `COc1ccccc1OCCn1c(SC)nc2ccccc21`, the AC50 is > 70 µM (inactive).

On to `c1ccc2c(c1)ncn2CCOc1ccc2c(c1)CCC2`, for which the AC50 is 3.76 µM.

For `S=c1[nH]c2cccc(Cl)c2n1CCOc1ccccc1`, the AC50 was 8.43 µM.

On to `NCC(=O)Nc1ccc(-n2nc(C(F)(F)F)cc2-c2ccc3c(ccc4ccccc43)c2)cc1`, for which the AC50 is 10.9 µM.

As for `CC(C)(C)c1ccc(OCCn2cnc3ccccc32)cc1`, the AC50 was 30.5 µM.

Regarding `Cc1ccc(OCCn2cnc3cc(C)c(C)cc32)cc1`, the half-maximal activity concentration (AC50) is 15.9 µM.

For the compound `CSc1nc2ccccc2n1CCOc1ccc(C)cc1`, the AC50 is > 70 µM (inactive).

On to `Cc1cccc(OCCn2c(=S)[nH]c3cc(F)ccc32)c1`, for which the concentration at half-maximal activity (AC50) was 14.8 µM and 15.5 µM.

For `Cc1cc2ncn(CCOc3ccc4c(c3)CCC4)c2cc1C`, the AC50 was 5.59 µM.

Take `Cc1cc2ncn(CCOc3ccccc3)c2cc1C`: the AC50 was 25 µM.

On to `Cc1ccc(C(C)C)c(OCCn2c(=S)[nH]c3ccccc32)c1`, for which the AC50 was 4.95 µM.

In the case of `Clc1ccc(OCCn2cnc3ccccc32)cc1`, the AC50 was 32.5 µM.

With `Cc1cc2ncn(CCOc3ccccc3C)c2cc1C`, the half-maximal activity concentration (AC50) is 19.8 µM.
